Laboratory results published in patent US12139458B2, “(2,5-dioxopyrrolidin-1-yl)(phenyl)-acetamide derivatives and their use in the treatment of neurological diseases” (UNIWERSYTET JAGIELLONSKI, priority 2019, dated 2024).

Assays:
[1] = test system: male Swiss albino mice (CD-1); assay: Subcutaneous pentylenetetrazole seizure test (scPTZ); assay type: in vivo
In short: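 Compounds given i.p. in 1% aqueous Tween 30 min before s.c. PTZ at 100 mg/kg. Mice observed 30 min for clonic seizures (whole-body clonus ≥3 s with loss of righting reflex); absence counted as protection. ED50 from 3-4 groups of 6 mice; screening in groups of 4.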

[2] = test system: male white Swiss mice (CD-1); assay: Capsaicin-induced pain model; assay type: in vivo; conditions: Mus musculus, ip; i.p. 30 min before capsaicin, mice
Experimental: The tests were carried out using male white Swiss mice (CD-1) weighing 18-25 g. All procedures were carried out in accordance with Polish and international guidelines on ethics of animal testing, after obtaining appropriate institutional approval. The study group consisted of 8-10 animals. The tested and reference substances were administered intraperitoneally 30 minutes before given test as suspension in 1% aqueous solution of Tween. All tests/models were carried out based on the procedures described in the specialist literature: the formalin test (Beirith, A.; Santos, A. R.; Calixto, J. B.; Rodrigues, A. L.; Creczynski-Pasa, T. B. Eur. J. Pharmacol. 1998, 345, 233-245), the model of capsaicin-induced pain (Mogilski, S.; Kubacka, M.; Redzicka, A.; Kazek, G.; Dudek, M.; Malinka, W.; Filipek, B. Pharmacol. Biochem. Behav. 2015, 133, 99-110), the model of oxaliplatin-induced neuropathic pain—von Frey test (Sałat, K.; Cios, A.; Wyska, E.; Satat, R.; Mogilski, S.; Filipek, B.; Wigȩkowski, K.; Malawska, B. Pharmacol. Biochem. Behav. 2014, 122, 173-181).
This test assesses the time of licking and/or biting the hind paw into which mice were injected subplantarly with capsaicin in an amount of 1.6 μg, dissolved in 20 μl of a mixture containing 0.9% saline and ethanol (5% of the final volume). Observation was carried out […] after capsaicin administration. Test compounds were administered intraperitoneally 30 minutes before administration of capsaicin. Inhibition of nociceptive reaction—shortening the time of licking and biting the paw was the measure of antinociceptive activity of the compound tested.
Valproic acid (VPA) was the reference compound in this test. […] Compound 6 was administered at 20 mg/kg, 30 mg/kg and 40 mg/kg. Test compounds were administered as a suspension in 1.0% Tween 80 solution. The control group consisted of mice treated with vehicle alone (1% Tween 80 solution). The nociceptive reaction time in this group was 43.29±3.21 seconds.

[3] = test system: male white Swiss mice (CD-1); assay: Oxaliplatin-induced neuropathy, Cold Plate test; assay type: in vivo; conditions: OXPT-induced neuropathy, plate 2° C.
Experimental: Oxaliplatin (OXPT) was dissolved in a 5% glucose solution, followed by intraperitoneal administration to mice. A single dose of 10 mg/kg was used. Tactile and thermal (sensation of low temperature) allodynia associated with oxaliplatin-induced neuropathy are characterized by two phases. The early phase is acute and develops soon after administration of the OXPT, while the symptoms of the later (chronic) phase (associated with neurons damage), develops after a few days. Behavioral tests in mice with OXPT-induced neuropathy were carried out 7 days after its administration, i.e. in the late phase of neuropathy.
The effect of the test compound on thermal allodynia was evaluated in a Cold Plate test using specialized equipment—Cold/Hot Plate; Bioseb, France. The animals were placed individually on a metal plate cooled to 2° C. using the thermostated device. The observed nociceptive reactions of animals included licking and/or characteristic hind paw lift or bounce. The observation time was set at 60 s to eliminate the potential risk of tissue damage and minimize animal discomfort. Similar to the Von Frey test, the measurement was performed 3 times.
Compound 6 was administered at doses of 10, 20 and 30 mg/kg.

[4] = test system: Ca2+ channel type L (diltiazem binding site); assay: Ca2+ channel type L (diltiazem binding site) affinity study; conditions: 100 μM, rat cerebral cortex
Excerpt: A unique feature of the compound 6 representing compounds of formula (II) according to the invention is the inhibition of calcium currents by blocking the transient receptor potential vanilloid type 1 (TRPV1). This effect has not been disclosed for known AEDs. TRPV1 receptor antagonism may determine the antinociceptive effect of the compounds disclosed herein. The role of the TRPV1 receptor in conduction of pain stimuli has been well documented in specialist literature (Szallasi, A.; Cortright, D. N.; Blum, C. A.; Eid, S. R. Nat. Rev. Drug. Discov. 2007, 6, 357-372). The compounds according to the invention are characterized by a complex mechanism of action, which is not described for known anticonvulsants. It should be emphasized, however, that further in vitro studies may reveal further molecular targets responsible for the pharmacological action of substances being the subject of current patent claim. The results of binding studies (sodium channel, calcium channel) and functional tests (TRPV1 receptor) for compound 6 are shown in Table 3.

Potassium channel (hERG) = Potassium channel (hERG) (Homo sapiens, UniProt Q12809); assay: Potassium channel (hERG) affinity study; assay type: binding; conditions: 100 μM, human recombinant cells (HEK-293)
Sequence of Potassium channel (hERG) (Q12809 whole entry): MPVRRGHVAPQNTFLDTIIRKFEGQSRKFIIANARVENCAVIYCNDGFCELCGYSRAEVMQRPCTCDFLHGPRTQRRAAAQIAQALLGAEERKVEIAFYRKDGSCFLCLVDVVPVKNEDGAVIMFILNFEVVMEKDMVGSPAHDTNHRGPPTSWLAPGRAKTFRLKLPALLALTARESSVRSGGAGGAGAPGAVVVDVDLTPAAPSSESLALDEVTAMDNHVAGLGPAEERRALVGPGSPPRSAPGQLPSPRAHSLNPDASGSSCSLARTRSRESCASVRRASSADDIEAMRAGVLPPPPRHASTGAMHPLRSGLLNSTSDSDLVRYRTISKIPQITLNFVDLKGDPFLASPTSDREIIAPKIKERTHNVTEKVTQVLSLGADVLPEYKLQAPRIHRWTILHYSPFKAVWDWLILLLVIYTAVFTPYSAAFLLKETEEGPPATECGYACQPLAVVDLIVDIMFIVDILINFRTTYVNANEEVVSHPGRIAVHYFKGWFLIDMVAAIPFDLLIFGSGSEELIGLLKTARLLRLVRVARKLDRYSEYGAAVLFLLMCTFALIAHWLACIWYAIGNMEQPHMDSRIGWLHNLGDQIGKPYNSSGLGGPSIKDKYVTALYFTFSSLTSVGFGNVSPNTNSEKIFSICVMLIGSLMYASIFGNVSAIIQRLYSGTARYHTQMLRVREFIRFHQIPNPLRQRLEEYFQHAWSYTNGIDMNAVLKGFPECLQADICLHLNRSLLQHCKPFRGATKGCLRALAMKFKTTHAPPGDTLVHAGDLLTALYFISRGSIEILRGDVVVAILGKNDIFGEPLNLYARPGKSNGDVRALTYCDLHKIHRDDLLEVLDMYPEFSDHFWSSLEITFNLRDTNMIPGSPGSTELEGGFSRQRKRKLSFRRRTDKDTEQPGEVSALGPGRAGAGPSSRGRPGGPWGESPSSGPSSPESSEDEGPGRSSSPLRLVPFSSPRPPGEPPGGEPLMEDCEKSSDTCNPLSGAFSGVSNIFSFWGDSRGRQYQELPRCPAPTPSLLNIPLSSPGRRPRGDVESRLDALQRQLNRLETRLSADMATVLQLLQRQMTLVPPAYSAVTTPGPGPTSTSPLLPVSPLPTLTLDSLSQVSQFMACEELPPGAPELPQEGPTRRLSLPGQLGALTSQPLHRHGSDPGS

`O=C(C(c1ccccc1)N1C(=O)CCC1=O)N1CCN(c2cccc(C(F)(F)F)c2)CC1` (racemic) [Compound 6, 1-(2-Oxo-1-phenyl-2-(4-(3-(trifluoromethyl)phenyl)piperazin-1-yl)ethyl)pyrrolidine-2,5-dione] was tested. Which ED50 ([1]; Mus musculus, ip, 0.5 h, mice) did it give?
The ED50 was 59.4 mg/kg.

What about the responders at 100 mg/kg ([1]; Mus musculus, ip, screening, 100 mg/kg i.p., 0.5 h, mice, read-out: scPTZ: number of mice protected/number of mice tested (converted)) of the same compound?
Its responders at 100 mg/kg is 100%.

What about the “mice protected in the scPTZ test” value ([1]; screening, 100 mg/kg, time point 0.5 h) of the same compound?
Its value is 100%.

And the ED50 [2]?
Its ED50 is 17.9 mg/kg.

And the “effect on thermal allodynia in the cold plate test” value [3]?
Its value is “significantly increased thermal allodynia sensitivity”.

What about the “Inhibition of specific control binding, Ca2+ channel type L (diltiazem binding site)” value [4] of the same compound?
Its value is 69.6 (100) %.

And the “Inhibition of specific control binding, Potassium channel (hERG)” value (Potassium channel (hERG))?
The value was 25.8 (100) %.
